Measured values taken from US12156867B2, “Melanocortin agents for use in the therapeutic treatment of melanoma, tumors of the gastrointestinal tract, and thyroid carcinoma” (UNIVERSITA' DI PISA, priority 2018, dated 2024).

What was measured:
Type in all cases: cell-based
[1] = tested on: A-2058 human melanoma cells; test: Apoptosis analysis by Cell Death Detection ELISA Plus; conditions: A-2058 cells, 10 nM (corresponding to the IC50), 72 h
Experimental: (§1) In order to assess the apoptotic activity, the melanoma cells were plated at 2×10^5 in sterile Petri dishes. The analysis of apoptosis was performed on WM-266-4 and A-2058 cell lines after treatment with the compound ML00253764 at the experimental IC50 obtained after 72 hours. After the treatment, the cells were scraped off and recovered with their medium into blind ended tubes and counted in the Burker chamber. An aliquot containing 50,000 cells was centrifuged for 10 minutes at 800 rpm, the pellet thus obtained was lysed with an appropriate volume of lysis buffer for 30 minutes at room temperature, then again centrifuged at 200 g for 10 minutes. The supernatant was used for apoptosis analysis by ELISA assay (Cell Death detection ELISA PLUS, Roche). The ELISA apoptosis assay was performed in 96-well microplates and the absorbance reading was performed by using the Thermo labsystems Multiskan Spectrum reader (M-Medical, MI). To visualize the apoptotic process, 2×10^4 A-2058 cells were plated on slides in a 12-well plate and treated for 72 hours with the compound ML00253764 at a concentration of 10 nM. At the end of the incubation with the drug, the cells were washed with PBS, fixed and stained with TO-PRO3 iodide. The coverslips were finally mounted, and the slides viewed under a Leica TCS SP5 confocal laser scanning microscope. […]

[2] = tested on: WM 266-4 human melanoma cells; test: as above; conditions: WM 266-4 cells, 35 nM (corresponding to the IC50), 72 h
Experimental: as §1

[3] = tested on: A-2058 human melanoma cell line; test: In vitro cytotoxicity / antiproliferative effect, cell count after 72 h; conditions: A-2058 cells; for IC50: Homo sapiens, A2058, 72 h drug exposure, cell proliferation vs vehicle controls
Excerpt: (§2) The present study used the human melanoma cell lines A-2058 BRAF-mutant (CRL-11147), obtained from ATCC (American Type Culture Collection, Manassas, USA), and WM-266-4 (91061233), obtained from ECACC (European Collection of Authenticated Cell Cultures). In addition, carcinoma cells of the gastrointestinal tract (Caco-2, HT-29) and thyroid carcinoma cells (8305C) were used. The compound ML00253764 was purchased from Tocris Bioscience (Bristol, UK), and solubilized in sterile water. The compound Vemurafenib was obtained from Selleckchem (Munich, Germany) and dissolved in dimethyl sulfoxide (DMSO). For the in vitro studies, both drugs were dissolved in a stock solution at 10 mM concentration. In the same experiment, the concentration of DMSO in the medium of the controls was the same used to obtain the maximum concentration of Vemurafenib in the cell culture media. The biotinylated anti-rabbit IgG antibody and the avidin-biotin complex were purchased from Vector Laboratories (Burlingame, CA, USA), while TO-PRO-3 iodide was from Molecular Probes (Eugene, OR, USA). Anti-MC4R antibody (ab75506) and goat anti-rabbit IgG antibody (Alexa Fluor 488) were purchased from Abcam (Cambridge, MA, USA).
(§3) The two tumor cell lines WM-266-4 and A-2058 were grown in cell culture flasks as monolayers and maintained in EMEM and DMEM, respectively, supplemented with 10% fetal bovine serum (FBS), penicillin (50 IU/ml), streptomycin (50 μg/ml) and L-Glutamine (2 mM). The Caco-2, HT-29 and 8305C cells, respectively, were grown in EMEM 20% FBS, McCoy's 5a Medium Modified 10% FBS and RPMI 20% FBS. All reagents used for maintaining tumor cells in culture were purchased from Sigma-Aldrich. The cell lines were maintained in the B5061EK/CO2 mod. Heraeus incubator (Hanau, Germany) at a temperature of 37° C. in a humid atmosphere at 5% CO2. The cells were detached from the culture plates while in the logarithmic growth phase by using a 10× trypsin-EDTA solution and finally plated again to be tested or to keep them in culture.
(§4) The concentration that reduced cell survival by 50% (IC50) compared to controls was finally calculated with GraphPad Prism (version 5.0, San Diego, CA). The simultaneous combination of Vemurafenib and ML00253764 was assessed in the 2 melanoma lines for 72 hours using the aforementioned compounds in a fixed molar ratio of 1:10. The assessment of the level of interaction (synergism, additivity or antagonism) between the compounds ML00253764 and Vemurafenib was performed with the Combination Index (CI) method, according to which CI=1 indicates an additive effect, CI>1 an antagonistic effect and CI<1 a synergistic effect.

[4] = tested on: WM 266-4 human melanoma cell line; test: as above; conditions: for IC50: Homo sapiens, WM 266-4 cells, 72 h drug exposure, cell proliferation vs vehicle controls
Excerpt: as §2, §3, §4

[5] = tested on: HT-29 human carcinoma cell line of the gastrointestinal tract; test: as above; conditions: HT-29 cells
Excerpt: as §2, §3, §4
(§5) The related IC50s were calculated at the end of the experiments.

[6] = tested on: 8305C human thyroid carcinoma cell line; test: as above; conditions: 8305C cells
Excerpt: as §2, §3, §4, §5

[7] = tested on: A-2058 human melanoma cells; test: Apoptosis visualised by TO-PRO3 iodide nuclear staining, confocal microscopy; conditions: A-2058 cells, 10 nM, 72 h
Experimental: as §1

[8] = Homo sapiens, 72 h drug exposure, cell proliferation vs vehicle controls

Row | Structure (SMILES) | pro-apoptotic activity (ELISA, cytosolic nucleosomes) [1] | apoptotic signal (ELISA, cytosolic nucleosomes) [2] | antiproliferative effect ([3]; 10 nM, 72 h) | IC50 [3] | IC50 [4] | antiproliferative effect ([4]; WM-266-4 cells, 10 nM, 72 h) | antiproliferative effect ([5]; 10 nM, 72 h) | IC50 [5, 8] | antiproliferative effect ([6]; 10 nM, 72 h) | IC50 [6, 8] | apoptosis, TO-PRO3 nuclear fluorescence [7]
1 | COc1ccc(Br)cc1CCc1c(F)cccc1C1=NCCN1 [ML00253764, 2-[2-[2-(5-bromo-2-methoxyphenyl)-ethyl]-3-fluorophenyl]-4,5-dihydro-1H-imidazole] | significant pro-apoptotic activity | significant increase in the apoptotic signal | significant antiproliferative effect | 11.1 nM | 33.7 nM | significant antiproliferative effect | significant antiproliferative effect | 806 nM | significant antiproliferative effect | 7670 nM | increase in fluorescence with “shrunken” nuclei
2 | CCCS(=O)(=O)Nc1ccc(F)c(C(=O)c2c[nH]c3ncc(-c4ccc(Cl)cc4)cc23)c1F [Vemurafenib] | – | – | – | 526 nM | 46.6 nM | – | – | – | – | – | –
